Test results as given in US20060134212A1, “Lercanidipine immediate release compositions” (Forest Laboratories, Inc., priority 2004, published 2006).

Columns and labels:
[1] = species not given; cited from earlier work
[2] = test system: Caco-2 cell; conditions: Caco-2 cell apparatus; cited from earlier work
[3] = test system: Caco-2 cell monolayers; test: Caco-2 cell analysis: lercanidipine permeation with different concentrations of Polysorbate 80 (Tween 80); type: in vitro ADME
Text: The objective of this study was to investigate the effects of surfactant on the permeability characteristics of lercanidipine across Caco-2 cell monolayers. Caco-2 cell monolayers have been used as a model of intestinal mucosa for predicting oral drug absorption (P. Artursson. Epithelial transport of drugs in cell culture. I: A model for studying the passive diffusion of drugs over intestinal absorptive (Caco-2) cells. JPharm (1990)).
Transport experiments for the permeation characteristics of lercanidipine in the presence of different concentrations of Polysorbate 80 (Tween 80) were conducted as follows. […] The samples were collected and analyzed for lercanidipine.
The permeation characteristics lercanidipine across Caco-2 cell monolayers in the presence of different concentrations of Tween 80 were analyzed using four dosing solutions. […]
Papp values will be calculated using the equation: Papp=ΔQ/Δt/(A*C0) where ΔQ/Δt is the linear appearance rate of mass in the receiver solution, A is the filter/cell surface area (1 cm^2 for 12-well system), and C0 is the initial concentration of the test compounds.

[4] = cited from earlier work
[5] = cited from earlier work; remark: listed apart in the source

| Structure (SMILES) | plasma concentration (AUCo-t), Form II compared to Form I [1] | time to maximum concentration (Tmax), one form compared to the other [1] | Papp [2] | increase in Caco-2 permeability upon the addition of surfactant ([3]; 50 μg/ml Lerc in HBSS, pH 6.8, Tween 80 added vs none) | change of Caco-2 permeability at higher surfactant ([3]; surfactant in transport buffer increased ten fold from 0.02 to 0.2) | time of peak plasma level following dosage ([4]; oral administration) [h] | increase of amount of lercanidipine absorbed with food ([4]; simultaneous intake of food (especially high fat) vs administration without food) | solubility ([5]; at pH 5 and above) | aqueous solubility ([5]; water) |
| --- | --- | --- | --- | --- | --- | --- | --- | --- | --- |
| COC(=O)C1=C(C)NC(C)=C(C(=O)OC(C)(C)CN(C)CCC(c2ccccc2)c2ccccc2)C1c1cccc([N+](=O)[O-])c1.Cl (stereo not shown) [Form II] | higher plasma concentration | delayed time of maximum concentration | – | – | – | – | – | – | – |
| COC(=O)C1=C(C)NC(C)=C(C(=O)OC(C)(C)CN(C)CCC(c2ccccc2)c2ccccc2)C1c1cccc([N+](=O)[O-])c1.Cl (stereo not shown) [Form I] | – | shorter time to maximum concentration | – | – | – | – | – | – | – |
| COC(=O)C1=C(C)NC(C)=C(C(=O)OC(C)(C)CN(C)CCC(c2ccccc2)c2ccccc2)C1c1cccc([N+](=O)[O-])c1 (stereo not shown) [lercanidipine, methyl 1,1,N-trimethyl-N-(3,3-diphenylpropyl)-2-aminoethyl 1,4-dihydro-2,6-dimethyl-4-(3-nitrophenyl)pyridine-3,5-dicarboxylate] | – | – | about 0.5×10^−7 cm/s | three fold increase in permeability | permeability of lercanidipine decreases | 1 to 3 | between three and four times | less than 20 μg/ml | about 5 μg/ml |
